# Measurements from US11840686B2, “Modulation of prekallikrein (PKK) expression” (Ionis Pharmaceuticals, Inc., priority 2013, dated 2023).
# Strand notation (5' to 3'): a small letter for the sugar, then the base; units joined by * are phosphorothioate-linked, units joined directly phosphodiester-linked; [ ] holds rarer units or linkages, { } end groups; capitals alone tell only the bases. e = 2'-O-(2-methoxyethyl) (MOE); k = constrained ethyl (cEt); [5mC] = 5-methylcytosine; d = 2'-deoxy (DNA)
# Test system: human PKK mRNA
# Assay: Antisense inhibition of human PKK mRNA in HepaRG cells, 1,000 nM, MOE/deoxy/cEt oligonucleotides (Example 3)
# Assay type: cell-based
# In short: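 HepaRG cells at 20,000 per well electroporated with 1,000 nM 16-mer MOE/cEt/deoxy gapmers (phosphorothioate, 5-methylcytosine). After about 24 h, PKK mRNA measured by qRT-PCR with primer probe set RTS3454, normalized to RIBOGREEN total RNA. Reported as percent inhibition versus untreated cells.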
# [1] = HepaRG cells, electroporation with 1,000 nM antisense oligonucleotide, approx. 24 hours, PKK mRNA by RT-PCR (RTS3454), relative to untreated control cells, Table 26 experiment
# [2] = Table 27, HepaRG cells, 1,000 nM antisense oligonucleotide, human PKK mRNA
Substance,% inhibition [1],% inhibition [2]
548264 (antisense e[5mC]*eA*kG*dT*d[5mC]*d[5mC]*dA*dA*dA*dA*dA*dT*d[5mC]*k[5mC]*k[5mC]*eT) [compound 548264],60%,
548266 (antisense eT*eT*kG*dG*d[5mC]*d[5mC]*dA*dA*d[5mC]*dT*d[5mC]*dT*dG*kT*kG*eG) [compound 548266],44%,
548267 (antisense eG*eA*k[5mC]*d[5mC]*dT*d[5mC]*d[5mC]*dA*dG*dA*d[5mC]*dT*dA*k[5mC]*kT*eG) [compound 548267],34%,
548268 (antisense eT*eG*kT*dG*dT*d[5mC]*dT*dA*dG*dG*dG*dA*dG*kT*kT*eG) [compound 548268],52%,
548269 (antisense eA*eG*k[5mC]*dA*d[5mC]*dA*d[5mC]*dA*dA*dT*dT*dA*d[5mC]*kT*kG*eG) [compound 548269],62%,
548270 (antisense e[5mC]*eT*kG*d[5mC]*dT*dG*dG*dT*dT*dT*dT*dA*dG*kA*k[5mC]*e[5mC]) [compound 548270],28%,
548271 (antisense eT*eT*k[5mC]*dA*d[5mC]*dT*dT*dA*d[5mC]*d[5mC]*dA*d[5mC]*dA*kG*kG*eA) [compound 548271],56%,
548272 (antisense eG*eG*kT*dG*d[5mC]*d[5mC]*dA*d[5mC]*dT*dT*dG*d[5mC]*dT*kT*kG*eG) [compound 548272],54%,
548273 (antisense eA*eA*kT*d[5mC]*dT*d[5mC]*d[5mC]*dA*d[5mC]*d[5mC]*d[5mC]*d[5mC]*d[5mC]*kG*kA*eA) [compound 548273],5%,
548274 (antisense eT*eA*k[5mC]*d[5mC]*dT*dG*dA*d[5mC]*dA*dA*dG*dT*dG*kG*kT*e[5mC]) [compound 548274],0%,
548275 (antisense eG*eT*k[5mC]*d[5mC]*d[5mC]*dA*dA*dG*dA*d[5mC]*dA*dT*dT*k[5mC]*k[5mC]*eT) [compound 548275],40%,
548276 (antisense e[5mC]*eA*kG*dA*dG*dT*dG*dT*d[5mC]*dA*dT*d[5mC]*dT*kG*k[5mC]*eG) [compound 548276],49%,
548277 (antisense eG*eG*kA*dT*dT*dG*dG*dA*d[5mC]*d[5mC]*d[5mC]*dA*dG*kA*k[5mC]*eA) [compound 548277],57%,
548279 (antisense e[5mC]*eA*k[5mC]*d[5mC]*dT*dA*dG*dA*dA*d[5mC]*dT*dA*dT*k[5mC]*k[5mC]*eA) [compound 548279],39%,
548280 (antisense e[5mC]*eT*k[5mC]*d[5mC]*d[5mC]*dT*d[5mC]*dT*dG*dT*dA*dA*dT*kG*kA*eT) [compound 548280],43%,
548281 (antisense eG*eG*kT*dT*dG*dA*dG*dG*dG*dA*d[5mC]*dA*dG*kA*k[5mC]*eA) [compound 548281],0%,
548282 (antisense eG*eT*kG*dG*dG*dT*dT*dT*dG*d[5mC]*dA*d[5mC]*dA*kT*kG*eG) [compound 548282],73%,
548283 (antisense eG*eG*k[5mC]*dT*dT*dA*dT*dG*d[5mC]*dT*d[5mC]*d[5mC]*dT*kT*k[5mC]*eT) [compound 548283],56%,
548284 (antisense e[5mC]*e[5mC]*k[5mC]*d[5mC]*d[5mC]*dT*dG*dT*dA*dG*dT*dT*dG*kG*k[5mC]*eT) [compound 548284],35%,
548285 (antisense eG*e[5mC]*kT*dT*dA*d[5mC]*dT*dT*dA*d[5mC]*dA*dT*d[5mC]*k[5mC]*k[5mC]*eT) [compound 548285],52%,
548286 (antisense eG*eG*kG*dA*d[5mC]*dT*dA*d[5mC]*dA*dT*dG*d[5mC]*dA*kA*kT*eA) [compound 548286],47%,
548287 (eG*eT*k[5mC]*dA*dA*dA*dG*dA*dG*dT*dG*dT*d[5mC]*k[5mC]*kA*e[5mC]; antisense) [compound 548287],38%,
548288 (eG*eA*kA*dT*dA*dG*d[5mC]*dA*dA*dG*d[5mC]*dT*d[5mC]*k[5mC]*kA*eA; antisense) [compound 548288],64%,
548289 (e[5mC]*eA*kT*dG*dA*dT*dA*d[5mC]*d[5mC]*dA*d[5mC]*dA*d[5mC]*k[5mC]*kA*e[5mC]; antisense) [compound 548289],28%,
548290 (eG*eA*kG*d[5mC]*dA*d[5mC]*dT*d[5mC]*dT*dT*dA*dT*dT*kA*kG*e[5mC]; antisense) [compound 548290],31%,
548291 (e[5mC]*e[5mC]*kT*dG*dT*dT*dA*dG*dA*dG*dT*dT*dG*kG*k[5mC]*e[5mC]; antisense) [compound 548291],35%,
548292 (eA*eG*kG*dA*d[5mC]*dA*d[5mC]*dT*dG*dT*dT*dT*d[5mC]*k[5mC]*kA*eG; antisense) [compound 548292],38%,

Substance,% inhibition [1],% inhibition [2]
548293 (eG*eT*k[5mC]*dA*d[5mC]*d[5mC]*dA*dG*dA*dA*d[5mC]*d[5mC]*dA*k[5mC]*kA*eT; antisense) [compound 548293],44%,
548294 (eG*eT*kG*dT*dG*d[5mC]*dA*d[5mC]*dT*dT*dT*d[5mC]*dT*kG*kG*eT; antisense) [compound 548294],33%,
548295 (e[5mC]*eT*k[5mC]*dT*dG*dA*dT*dT*dG*dG*dG*dT*d[5mC]*kA*k[5mC]*e[5mC]; antisense) [compound 548295],26%,
548296 (eA*e[5mC]*k[5mC]*dA*dA*d[5mC]*dA*dA*d[5mC]*dT*d[5mC]*dA*dG*kG*k[5mC]*e[5mC]; antisense) [compound 548296],34%,
548297 (eA*e[5mC]*kT*d[5mC]*dT*d[5mC]*dA*dA*dG*d[5mC]*dT*d[5mC]*d[5mC]*kA*k[5mC]*eG; antisense) [compound 548297],32%,
548298 (eG*eG*kA*d[5mC]*dA*dA*dT*dA*dT*dG*dT*d[5mC]*dT*k[5mC]*k[5mC]*eT; antisense) [compound 548298],0%,
548299 (e[5mC]*eA*kT*dT*dG*dT*dG*d[5mC]*dT*d[5mC]*dA*dA*d[5mC]*kT*kG*eA; antisense) [compound 548299],35%,
548300 (eG*e[5mC]*k[5mC]*d[5mC]*dA*dT*dG*dG*dT*dG*dA*dA*dT*k[5mC]*kT*eG; antisense) [compound 548300],53%,
548301 (e[5mC]*e[5mC]*kT*dA*dG*dT*dA*d[5mC]*dA*dA*dA*dG*dT*kG*kG*e[5mC]; antisense) [compound 548301],65%,
548302 (eG*e[5mC]*k[5mC]*dA*dT*dT*dT*dT*dA*dT*d[5mC]*d[5mC]*d[5mC]*kT*kG*eA; antisense) [compound 548302],71%,
548303 (eG*eG*kG*d[5mC]*d[5mC]*d[5mC]*d[5mC]*d[5mC]*dA*dT*dG*dT*d[5mC]*k[5mC]*kA*eT; antisense) [compound 548303],0%,
548305 (eG*eT*kT*d[5mC]*dT*dT*dG*d[5mC]*dT*dT*dA*dT*d[5mC]*k[5mC]*kT*e[5mC]; antisense) [compound 548305],,55%
548306 (eA*eT*kG*dT*dG*dA*d[5mC]*dA*dG*dT*d[5mC]*dA*dG*kG*kG*eA; antisense) [compound 548306],,8%
548307 (eT*eT*k[5mC]*dT*dG*d[5mC]*dA*dA*d[5mC]*dT*dG*dA*dG*k[5mC]*k[5mC]*eT; antisense) [compound 548307],,6%
548308 (eA*eA*kT*dG*dG*d[5mC]*dA*dG*dG*dT*d[5mC]*d[5mC]*dT*kG*kG*e[5mC]; antisense) [compound 548308],,9%
548309 (eA*eG*kA*d[5mC]*dA*dG*dT*dT*dG*dG*dT*dG*dG*kT*kT*eT; antisense) [compound 548309],,41%
548310 (eG*eA*kG*dG*dA*dG*dT*dT*dG*dG*dT*dT*dT*kA*kG*eT; antisense) [compound 548310],,0%
548311 (eT*eG*kA*d[5mC]*d[5mC]*dA*d[5mC]*d[5mC]*dT*d[5mC]*dT*d[5mC]*dG*kG*kG*eT; antisense) [compound 548311],,10%
548312 (eA*eT*kT*dT*dG*dG*d[5mC]*d[5mC]*d[5mC]*dT*dG*dA*dG*k[5mC]*k[5mC]*e[5mC]; antisense) [compound 548312],,0%
548313 (eG*e[5mC]*k[5mC]*dT*dT*dT*dG*dA*dG*dG*dG*dA*dG*kT*kG*eG; antisense) [compound 548313],,35%
548314 (eA*e[5mC]*kA*dA*d[5mC]*d[5mC]*dT*dG*dT*d[5mC]*d[5mC]*dA*dT*kT*k[5mC]*e[5mC]; antisense) [compound 548314],,43%
548315 (eG*eT*kT*dG*dT*d[5mC]*dA*dA*d[5mC]*dT*dG*dG*dG*kA*k[5mC]*e[5mC]; antisense) [compound 548315],,14%
548316 (e[5mC]*eT*kG*dT*dT*d[5mC]*dA*dG*dG*dT*dA*dG*d[5mC]*kA*k[5mC]*eA; antisense) [compound 548316],,64%
548317 (e[5mC]*e[5mC]*kG*dG*dG*dA*dA*dA*dG*dA*d[5mC]*dT*dG*kT*k[5mC]*eT; antisense) [compound 548317],,42%
548318 (eA*e[5mC]*kT*dG*d[5mC]*dA*d[5mC]*d[5mC]*d[5mC]*d[5mC]*dA*d[5mC]*dA*kT*kA*eT; antisense) [compound 548318],,18%
548319 (e[5mC]*e[5mC]*kT*d[5mC]*dA*dT*d[5mC]*dT*d[5mC]*dA*dG*dT*dA*kT*kG*eA; antisense) [compound 548319],,26%
